pKd: −log10 of the molar value. Calls of active or inactive are those of the source. The calls are words filed in the database; no cut-off is given here.

Data set [1] concerns the target T1, Tumor necrosis factor ligand superfamily member 11 (Homo sapiens) (UniProt O14788).
T1 sequence (whole entry): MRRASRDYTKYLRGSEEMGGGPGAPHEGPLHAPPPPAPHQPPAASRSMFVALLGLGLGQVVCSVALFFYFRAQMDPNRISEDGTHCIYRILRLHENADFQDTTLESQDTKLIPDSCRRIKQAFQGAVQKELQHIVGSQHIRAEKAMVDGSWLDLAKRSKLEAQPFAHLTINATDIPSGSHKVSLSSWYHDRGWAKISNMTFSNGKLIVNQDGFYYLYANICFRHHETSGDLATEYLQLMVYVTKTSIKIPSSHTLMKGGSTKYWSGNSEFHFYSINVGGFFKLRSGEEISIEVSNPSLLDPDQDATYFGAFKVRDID
Nature of the data set: Inhibition of human RANKL-induced osteoclastogenesis in RANKL cultured mouse bone marrow cells assessed as reduction in RANKL/M-CSF-induced TRAP activity at 5 uM preincubated with RANKL for 1 hr followed by cell addition and subsequent media replenishment every 48 hrs for 4 days. The note with it: time 4.0 day. It counts as cell-based.

The target in data set [2] is T2, Tumor necrosis factor ligand superfamily member 11 (Homo sapiens, UniProt O14788).
T2 sequence (O14788 whole entry): T1 sequence (whole entry)
The data set can be described thus: Binding affinity to GST-fused human RANKL extracellular domain (Lys159 to Asp317 residues) expressed in Escherichia coli BL21(DE3) pLysS by fluorescence spectrophotometric assay. The following applies: for pKd: read-out: Kd.

A short description of data set [3]: Cytotoxicity against mouse BMMC assessed as reduction in cell viability measured after 48 hrs by MTT assay. Format: cell-based. The note with it: mouse BMMC (bone marrow cells), read-out: LC50.
A short description of data set [4]: Therapeutic index, ratio of LC50 for mouse bone marrow cells to IC50 for Inhibition of human RANKL-induced osteoclastogenesis in RANKL cultured mouse bone marrow cells. It counts as toxicity. The following applies: read-out: Ratio LC50/IC50.

As for `O=C(NCCNC(=O)c1cn(S(=O)(=O)c2ccccc2)c2ccccc12)c1ccc2ccccc2c1`, the inhibition (commonly the relative decrease from the control value, in per cent) in data set [1] was “inactive”. Also, the pKd (in general, the negative decadic logarithm of the Kd, by convention in mol/L) in data set [2] was 5.45.
On to `Nc1cccc(-n2cc(C(=O)N3CCN(C(=O)c4coc5ccccc5c4=O)CC3)c3ccccc32)c1`, for which, in data set [1], the inhibition result was “inactive”. For the same molecule, in data set [2], the pKd was 4.72.
Turning to `Cc1ccc2occ(CN3CCN(Cc4cn(-c5cccc(C(F)(F)F)c5)c5ccccc45)CC3)c(=O)c2c1`, the inhibition entry in data set [1] was “inactive”. Moreover, the pKd in data set [2] was less than 4.96.
As for `O=C(c1coc2ccccc2c1=O)N1CCN(C(=O)c2cn(S(=O)(=O)c3ccccc3)c3ccccc23)CC1`, in data set [1], the inhibition result was “Active”. Also, the CC50 at 48 h in data set [3] was greater than 20 µM. Further, in data set [2], the pKd was 4.96.
Consider `N#Cc1ccc(S(=O)(=O)N2CCN(C(=O)c3cn(S(=O)(=O)c4cccc([N+](=O)[O-])c4)c4ccccc34)CC2)cc1`, for which the selectivity ratio in data set [4] is 10.4. Besides, in data set [3], the CC50 at 48 h was 52.6 µM.
On to `CN(CCN(C)S(=O)(=O)c1cccc([N+](=O)[O-])c1)C(=O)c1cn(S(=O)(=O)c2cccc([N+](=O)[O-])c2)c2ccccc12`, for which, in data set [4], the selectivity ratio amounted to 9.5. Also, the CC50 at 48 h in data set [3] was 18.3 µM.
With `O=C(c1ccc2ccccc2c1)N1CCN(Cc2cn(-c3cccc(C(F)(F)F)c3)c3ccccc23)CC1`, the inhibition result in data set [1] is “inactive”. Moreover, the Kd entry in data set [2] is reported as “Not Active”.
`O=C(c1ccccc1)N1CCN(C(=O)c2cn(-c3cccc(C(F)(F)F)c3)c3ccccc23)CC1`: in data set [1], the inhibition entry was “inactive”. In addition, the Kd entry in data set [2] is recorded as “Not Active”.
As for `Nc1cccc(S(=O)(=O)n2cc(C(=O)N3CCN(C(=O)c4coc5ccccc5c4=O)CC3)c3ccccc32)c1`, the inhibition result in data set [1] was “inactive”. Also, the Kd result in data set [2] is “Not Active”.
As to `O=C(c1ccc2ccccc2c1)N1CCN(Cc2cn(-c3cccc(C(F)(F)F)c3)c3ccc([N+](=O)[O-])cc23)CC1`, the inhibition result in data set [1] was “Active”. In addition, the CC50 at 48 h in data set [3] is greater than 20 µM. Moreover, the Kd result in data set [2] is “Not Active”.
In the case of `Cc1ccc2c(=O)c(CN(C)CCN(C)Cc3cn(S(=O)(=O)c4ccccc4)c4ccccc34)coc2c1`, the inhibition in data set [1] turned out to be 100%. Moreover, the CC50 at 48 h in data set [3] is less than 20 µM. Also, in data set [2], the pKd is 5.31.
With `O=C(c1coc2ccccc2c1=O)N1CCN(C(=O)c2cn(-c3cccc([N+](=O)[O-])c3)c3ccccc23)CC1`, in data set [1], the inhibition entry is “inactive”. Moreover, the pKd in data set [2] is less than 4.60.
Turning to `O=C(NCCCCNC(=O)c1cn(S(=O)(=O)c2ccccc2)c2ccccc12)c1ccc2ccccc2c1`, the inhibition result in data set [1] is “inactive”. Also, the pKd in data set [2] is 4.74.
For the molecule `Nc1cccc(-n2cc(C(=O)N3CCN(C(=O)c4coc5ccccc5c4=O)CC3)c3cc(N)ccc32)c1`, the inhibition result in data set [1] is “Active”. For the same molecule, in data set [3], the CC50 at 48 h is greater than 20 µM. For the same molecule, the pKd in data set [2] is 5.03.
Consider `O=C(c1coc2ccccc2c1=O)N1CCN(Cc2cn(-c3cccc(C(F)(F)F)c3)c3ccccc23)CC1`, for which the inhibition entry in data set [1] is “Active”. For the same molecule, the CC50 at 48 h in data set [3] was greater than 20 µM. Moreover, the negative logarithm of the Kd (pKd) in data set [2] was 5.07.
On to `CN(CCN(C)S(=O)(=O)c1ccccc1)C(=O)c1cn(S(=O)(=O)c2cccc([N+](=O)[O-])c2)c2ccccc12`, for which the selectivity ratio in data set [4] is greater than 112. In addition, the CC50 at 48 h in data set [3] was greater than 300 µM.
Consider `O=C(c1ccc2ccccc2c1)N1CCN(C(=O)c2cn(-c3cccc(C(F)(F)F)c3)c3ccccc23)CC1`, for which the inhibition entry in data set [1] is “inactive”. In addition, the Kd entry in data set [2] is “Not Active”.
For `Cc1cc2occ(CN3CCN(Cc4cn(-c5cccc(C(F)(F)F)c5)c5ccccc45)CC3)c(=O)c2cc1C`, in data set [1], the inhibition was found to be 100%. Moreover, in data set [3], the CC50 at 48 h was less than 20 µM. The negative-log Kd (pKd) in data set [2] was less than 5.00.
Taken in the same sequence, the figures for `O=C(c1ccccc1)N1CCN(Cc2cn(-c3cccc(C(F)(F)F)c3)c3ccccc23)CC1` were “Active”, greater than 20 µM and 4.73.
On to `O=C(c1cccs1)N1CCN(C(=O)c2c[nH]c3ccc([N+](=O)[O-])cc23)CC1`, for which, in data set [1], the inhibition result is “inactive”. For the same molecule, the negative-log Kd (pKd) in data set [2] was 4.80.
Regarding `O=C(c1cn(-c2cccc(C(F)(F)F)c2)c2ccccc12)N1CCN(C(=O)n2ccnc2)CC1`, the inhibition entry in data set [1] is “Active”. Further, the CC50 at 48 h in data set [3] was less than 20 µM. Also, the negative-log Kd (pKd) in data set [2] was 5.27.
On to `CN(CCN(C)C(=O)c1cn(-c2cccc(N)c2)c2ccccc12)C(=O)c1coc2ccccc2c1=O`, for which, in data set [1], the inhibition entry is “inactive”. In data set [2], the pKd is 4.75.
As for `CN(CCN(C)C(=O)c1cn(S(=O)(=O)c2ccccc2)c2ccccc12)C(=O)c1ccccc1F`, the inhibition entry in data set [1] is “Active”. Moreover, the CC50 at 48 h in data set [3] is greater than 20 µM. In data set [2], the pKd is 4.90.
Taken in the same sequence, the figures for `Cc1cc2occ(C(=O)N3CCN(C(=O)c4cn(-c5cccc(C(F)(F)F)c5)c5ccccc45)CC3)c(=O)c2cc1C` were 100%, less than 20 µM and 5.34.
`CN(CCN(C)C(=O)c1cn(S(=O)(=O)c2cccc(N)c2)c2ccccc12)C(=O)c1coc2ccccc2c1=O`: the inhibition result in data set [1] was “inactive”. Besides, in data set [2], the negative logarithm of the Kd (pKd) is 4.65.
With `O=C(c1coc2ccccc2c1=O)N1CCN(C(=O)c2cn(S(=O)(=O)c3cccc([N+](=O)[O-])c3)c3ccccc23)CC1`, the inhibition in data set [1] came out at 100%. Further, the CC50 at 48 h in data set [3] was less than 20 µM. Moreover, the Kd result in data set [2] was “Not Active”.
As to `O=C(NCCCNC(=O)c1cn(S(=O)(=O)c2ccccc2)c2ccccc12)c1coc2ccccc2c1=O`, the inhibition result in data set [1] was “inactive”. The Kd result in data set [2] is listed as “Not Active”.
For `O=C(NCCCNC(=O)c1cn(S(=O)(=O)c2ccccc2)c2ccccc12)c1ccccc1`, the inhibition entry in data set [1] was “inactive”. For the same molecule, the Kd result in data set [2] is “Not Active”.
Turning to `O=C(c1coc2ccccc2c1=O)N1CCN(Cc2cn(-c3cccc(C(F)(F)F)c3)c3ccc([N+](=O)[O-])cc23)CC1`, the inhibition in data set [1] stood at 100%. Moreover, the CC50 at 48 h in data set [3] was less than 20 µM. In addition, the Kd result in data set [2] is “Not Active”.
In the case of `Nc1cccc(-n2cc(C(=O)N3CCN(C(=O)C4COc5ccccc5C4=O)CC3)c3cc(N)ccc32)c1` (stereo unspecified), the inhibition entry in data set [1] was “inactive”. For the same molecule, the Kd entry in data set [2] is reported as “Not Active”.
In the case of `CN(CCN(C)C(=O)c1cn(S(=O)(=O)c2ccccc2)c2ccccc12)C(=O)c1ccccc1`, the inhibition result in data set [1] was “inactive”. The pKd in data set [2] is less than 4.82.
For the molecule `O=C(c1ccccc1F)N1CCN(C(=O)c2c[nH]c3ccc([N+](=O)[O-])cc23)CC1`, the inhibition result in data set [1] was “Active”. In addition, the CC50 at 48 h in data set [3] was greater than 20 µM. Besides, the pKd in data set [2] was 4.89.
Regarding `O=C(c1ccc2ccccc2c1)N1CCN(C(=O)c2cn(S(=O)(=O)c3ccccc3)c3ccccc23)CC1`, in data set [1], the inhibition entry is “inactive”. For the same molecule, in data set [2], the Kd entry is reported as “Not Active”.
On to `O=C(c1coc2ccccc2c1=O)N1CCN(C(=O)c2cn(-c3cccc(C(F)(F)F)c3)c3ccc([N+](=O)[O-])cc23)CC1`, for which the inhibition result in data set [1] is “inactive”. The Kd result in data set [2] is reported as “Not Active”.
`CN(CCN(C)C(=O)n1ccnc1)C(=O)c1cn(S(=O)(=O)c2ccccc2)c2ccccc12`: the inhibition entry in data set [1] is “inactive”. The Kd result in data set [2] is recorded as “Not Active”.
With `CN(CCN(C)C(=O)c1cn(-c2cccc(C(F)(F)F)c2)c2ccc([N+](=O)[O-])cc12)C(=O)c1coc2ccccc2c1=O`, the inhibition in data set [1] stood at 100%. For the same molecule, the CC50 at 48 h in data set [3] was less than 20 µM. In addition, the pKd in data set [2] was 5.55.

For the origin of these results see ChEMBL document CHEMBL4665827, “Discovery of Small-Molecule Inhibitors of Receptor Activator of Nuclear Factor-κB Ligand with a Superior Therapeutic Index” (J Med Chem, 2020).
